Experiment: logP determination by HPLC (EEC directive 79/831 Annex V. A8)
Conditions: HPLC gradient method, acetonitrile/0.1% aqueous phosphoric acid
Method: [logP=The logP values were determined in accordance with EEC directive 79/831 Annex V. A8 by HPLC (gradient method, acetonitrile/0.1% aqueous phosphoric acid]

In the case of `O=C(OCN1CCN(Cc2ccc(Cl)nc2)C1=N[N+](=O)[O-])C1CC1` [Example 59], the “logP (pH = 2.3)” value is reported as 1.57.

Source: patent US6503912B1, “Substituted guanidine derivatives” (Bayer Aktiengesellschaft, priority 1998, dated 2003)
